# Measured values published in PubChem BioAssay (NCI).
#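 Cultured in 96-well plates, cells were exposed to test compound for 48 hours across five concentrations. Here, GI50 denotes the concentration required for 50% inhibition of growth. TGI is the concentration that stops growth completely.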
# Key:
# Assay in all cases: NCI tumour cell line growth inhibition, 48 h
# TK-10 renal = tested on: TK-10 renal
# CCRF-CEM leukemia = tested on: CCRF-CEM leukemia
# KM12 colon = tested on: KM12 colon
# MDA-MB-468 breast = tested on: MDA-MB-468 breast
# EKVX NSCLC = tested on: EKVX NSCLC
# NCI-H522 lung = tested on: NCI-H522 lung
# HCT-15 colon = tested on: HCT-15 colon
# HOP-92 NSCLC = tested on: HOP-92 NSCLC
# 786-0 renal = tested on: 786-0 renal
# UACC-62 melanoma = tested on: UACC-62 melanoma
# BT-549 breast = tested on: BT-549 breast
# UO-31 renal = tested on: UO-31 renal
# T-47D breast = tested on: T-47D breast
# HS 578T breast = tested on: HS 578T breast
# OVCAR-5 ovarian = tested on: OVCAR-5 ovarian
# HL-60(TB) leukemia = tested on: HL-60(TB) leukemia
# HCC-2998 colon = tested on: HCC-2998 colon
# NCI-H460 lung = tested on: NCI-H460 lung
# SW-620 colon = tested on: SW-620 colon
# UACC-257 melanoma = tested on: UACC-257 melanoma
# MOLT-4 leukemia = tested on: MOLT-4 leukemia
# NCI-H23 lung = tested on: NCI-H23 lung
# M14 melanoma = tested on: M14 melanoma
# K-562 leukemia = tested on: K-562 leukemia
# LOX IMVI melanoma = tested on: LOX IMVI melanoma
# OVCAR-3 ovarian = tested on: OVCAR-3 ovarian
# HT29 colon = tested on: HT29 colon
# NCI/ADR-RES ovarian = tested on: NCI/ADR-RES ovarian
# HOP-62 NSCLC = tested on: HOP-62 NSCLC
# SK-MEL-2 melanoma = tested on: SK-MEL-2 melanoma
# MDA-MB-435 = tested on: MDA-MB-435
# ACHN renal = tested on: ACHN renal
# OVCAR-8 ovarian = tested on: OVCAR-8 ovarian
# MDA-MB-231 breast = tested on: MDA-MB-231 breast
# SF-295 CNS = tested on: SF-295 CNS
# SK-MEL-5 melanoma = tested on: SK-MEL-5 melanoma
# MCF7 breast = tested on: MCF7 breast
# MALME-3M melanoma = tested on: MALME-3M melanoma
# DU-145 prostate = tested on: DU-145 prostate
# COLO 205 colon = tested on: COLO 205 colon
# SNB-19 CNS = tested on: SNB-19 CNS
# SK-OV-3 ovarian = tested on: SK-OV-3 ovarian
# A498 renal = tested on: A498 renal
# SF-539 CNS = tested on: SF-539 CNS
# PC-3 prostate = tested on: PC-3 prostate
# CAKI-1 renal = tested on: CAKI-1 renal
# RXF 393 renal = tested on: RXF 393 renal
# IGROV1 ovarian = tested on: IGROV1 ovarian
# SF-268 CNS = tested on: SF-268 CNS
# RPMI-8226 leukemia = tested on: RPMI-8226 leukemia
# OVCAR-4 ovarian = tested on: OVCAR-4 ovarian
# HCT-116 colon = tested on: HCT-116 colon
# SN12C renal = tested on: SN12C renal
# U251 CNS = tested on: U251 CNS
# A549 NSCLC = tested on: A549 NSCLC
# SK-MEL-28 melanoma = tested on: SK-MEL-28 melanoma
# NCI-H226 lung = tested on: NCI-H226 lung
# SNB-75 CNS = tested on: SNB-75 CNS
compound,measurement,setting,value
CN(C)c1nc(NCCNS(=O)(=O)c2ccc(C(=O)/C=C/c3ccc(Cl)cc3)cc2)nc(Nc2ccc(F)cc2)n1,GI50,TK-10 renal,11.7 µM
same,TGI,TK-10 renal,30.3 µM
same,GI50,CCRF-CEM leukemia,3.75 µM
same,TGI,CCRF-CEM leukemia,> 100 µM
same,GI50,KM12 colon,2.97 µM
same,TGI,KM12 colon,9.11 µM
same,GI50,MDA-MB-468 breast,3.71 µM
same,TGI,MDA-MB-468 breast,14.8 µM
same,GI50,EKVX NSCLC,3.11 µM
same,TGI,EKVX NSCLC,14.7 µM
same,GI50,NCI-H522 lung,7.1 µM
same,TGI,NCI-H522 lung,22 µM
same,GI50,HCT-15 colon,4.62 µM
same,TGI,HCT-15 colon,16.9 µM
same,GI50,HOP-92 NSCLC,3.83 µM
same,TGI,HOP-92 NSCLC,14.7 µM
same,GI50,786-0 renal,7.28 µM
same,TGI,786-0 renal,20.2 µM
same,GI50,UACC-62 melanoma,5.41 µM
same,TGI,UACC-62 melanoma,18.7 µM
same,GI50,BT-549 breast,11.6 µM
same,TGI,BT-549 breast,23.9 µM
same,GI50,UO-31 renal,4 µM
same,TGI,UO-31 renal,16.6 µM
same,GI50,T-47D breast,4.37 µM
same,TGI,T-47D breast,18 µM
same,GI50,HS 578T breast,11.4 µM
same,TGI,HS 578T breast,58.1 µM
same,GI50,OVCAR-5 ovarian,10.7 µM
same,TGI,OVCAR-5 ovarian,22.6 µM
same,GI50,HL-60(TB) leukemia,4.39 µM
same,TGI,HL-60(TB) leukemia,> 100 µM
same,GI50,HCC-2998 colon,2.48 µM
same,TGI,HCC-2998 colon,6.9 µM
same,GI50,NCI-H460 lung,3.38 µM
same,TGI,NCI-H460 lung,13.8 µM
same,GI50,SW-620 colon,2.78 µM
same,TGI,SW-620 colon,11 µM
same,GI50,UACC-257 melanoma,8.36 µM
same,TGI,UACC-257 melanoma,21.8 µM
same,GI50,MOLT-4 leukemia,3.07 µM
same,TGI,MOLT-4 leukemia,> 100 µM
same,GI50,NCI-H23 lung,10.7 µM
same,TGI,NCI-H23 lung,23.4 µM
same,GI50,M14 melanoma,4.14 µM
same,TGI,M14 melanoma,15.3 µM
same,GI50,K-562 leukemia,3.29 µM
same,TGI,K-562 leukemia,> 100 µM
same,GI50,LOX IMVI melanoma,2.74 µM
same,TGI,LOX IMVI melanoma,9.16 µM
same,GI50,OVCAR-3 ovarian,3.16 µM
same,TGI,OVCAR-3 ovarian,11.9 µM
same,GI50,HT29 colon,2.15 µM
same,TGI,HT29 colon,5.72 µM
same,GI50,NCI/ADR-RES ovarian,5.49 µM
same,TGI,NCI/ADR-RES ovarian,18.4 µM
same,GI50,HOP-62 NSCLC,12.5 µM
same,TGI,HOP-62 NSCLC,27.5 µM
same,GI50,SK-MEL-2 melanoma,5.47 µM
same,TGI,SK-MEL-2 melanoma,19.5 µM
same,GI50,MDA-MB-435,3.8 µM
same,TGI,MDA-MB-435,14 µM
same,GI50,ACHN renal,4.2 µM
same,TGI,ACHN renal,15.3 µM
same,GI50,OVCAR-8 ovarian,10.2 µM
same,TGI,OVCAR-8 ovarian,23.7 µM
same,GI50,MDA-MB-231 breast,4.72 µM
same,TGI,MDA-MB-231 breast,17.4 µM
same,GI50,SF-295 CNS,6.11 µM
same,TGI,SF-295 CNS,19.8 µM
same,GI50,SK-MEL-5 melanoma,5.89 µM
same,TGI,SK-MEL-5 melanoma,18.8 µM
same,GI50,MCF7 breast,2.28 µM
same,TGI,MCF7 breast,6.33 µM
same,GI50,MALME-3M melanoma,12.8 µM
same,TGI,MALME-3M melanoma,26.4 µM
same,GI50,DU-145 prostate,9.7 µM
same,TGI,DU-145 prostate,21.8 µM
same,GI50,COLO 205 colon,5.96 µM
same,TGI,COLO 205 colon,18.7 µM
same,GI50,SNB-19 CNS,9.18 µM
same,TGI,SNB-19 CNS,21.3 µM
same,GI50,SK-OV-3 ovarian,11.5 µM
same,TGI,SK-OV-3 ovarian,27.7 µM
same,GI50,A498 renal,10.5 µM
same,TGI,A498 renal,23.1 µM
same,GI50,SF-539 CNS,10.1 µM
same,TGI,SF-539 CNS,22 µM
same,GI50,PC-3 prostate,3.74 µM
same,TGI,PC-3 prostate,14.1 µM
same,GI50,CAKI-1 renal,4.93 µM
same,TGI,CAKI-1 renal,19.5 µM
same,GI50,RXF 393 renal,3.09 µM
same,TGI,RXF 393 renal,15.1 µM
same,GI50,IGROV1 ovarian,8.58 µM
same,TGI,IGROV1 ovarian,21.4 µM
same,GI50,SF-268 CNS,6.21 µM
same,TGI,SF-268 CNS,23.5 µM
same,GI50,RPMI-8226 leukemia,2.47 µM
same,TGI,RPMI-8226 leukemia,7.11 µM
same,GI50,OVCAR-4 ovarian,5.92 µM
same,TGI,OVCAR-4 ovarian,22 µM
same,GI50,HCT-116 colon,1.66 µM
same,TGI,HCT-116 colon,3.11 µM
same,GI50,SN12C renal,3.79 µM
same,TGI,SN12C renal,15.9 µM
same,GI50,U251 CNS,5.25 µM
same,TGI,U251 CNS,18.6 µM
same,GI50,A549 NSCLC,4.52 µM
same,TGI,A549 NSCLC,17.4 µM
same,GI50,SK-MEL-28 melanoma,6.77 µM
same,TGI,SK-MEL-28 melanoma,20.1 µM
same,GI50,NCI-H226 lung,6.14 µM
same,TGI,NCI-H226 lung,24.3 µM
same,GI50,SNB-75 CNS,5.6 µM
same,TGI,SNB-75 CNS,25.7 µM
